Source: article PMC7429848, “XJB-5-131 inhibited ferroptosis in tubular epithelial cells after ischemia−reperfusion injury” (Cell Death & Disease, 2020)

Legend:
[1] = In vivo-based pharmacokinetic model, LC-MS/MS of plasma and tissue homogenates; parameters: species or system mice; details: for AUC0–6 h / AUC0–∞ / MRT0-6h / MRT0–∞ / t1/2 / tmax / Cmax: 3 mg/kg i.v. bolus
Description: (§1) The mice were sacrificed at 0.25, 0.5, 1, 2, 4 and 6 h after i.v. bolus administration of XJB-5-131. […] The concentration of XJB-5-131 in the liver was not obtained. The half-life (t1/2) was approximately 2 h. The area under the concentration–time curve (AUC0−6 h) of plasma was 322.7 µg·h/ml. The AUC0−6 h in the kidney was approximately […] compared with that of the AUC0−6 h in the brain (234.7 µg·h/g versus 4.1 µg·h/g). […] Moreover, the concentration in the kidney was almost close to the plasma concentration and lasted much longer, which predicted the therapeutic value of XJB-5-131 in kidney diseases. Next, we intravenously injected 3 mg/kg BODIPY-FL-XJB-5-131 into mice to explore the distribution of XJB-5-131 in the kidney, and whole-body fluorescence was analyzed at 0 and 30 min after injection.
Mice were injected with 3 mg/kg XJB-5-131 and were sacrificed at 0.25, 0.5, 1, 2, 4 and 6 h after injection. Plasma, kidney, liver and brain were collected to assess the XJB-5-131 concentration by LC-MS/MS. For plasma samples, an aliquot of 8 µL was protein precipitated with 160 µL IS, and the mixture was vortex-mixed and centrifuged at 12,000 × g for 15 min at 4 °C. Seventy microliters of supernatant was transferred to a 96-well plate and centrifuged for 5 min at 3220 × g and 4 °C, and then 6 µL of supernatant was directly injected for LC-MS/MS analysis. For tissue samples, tissue homogenates (kidney, brain and liver) were prepared by homogenizing tissue with threefold volume of homogenization solution (MeOH/15 mM PBS = 1:2). An aliquot of 20 µL was protein precipitated with 400 µL IS, and the mixture was vortex-mixed and centrifuged at 12,000 rpm for 15 min at 4 °C. Seventy microliters of supernatant was transferred to a 96-well plate and centrifuged for 5 min at 3220 × g and 4 °C, and then 6 µL of supernatant was directly injected for LC-MS/MS analysis.

[2] = system: renal I/R injury; assay: Renal I/R model: kidney injury and TEC repair (gross appearance, PAS, KIM-1, Ki67, Sox9); format: in vivo; details: mice
Description: (§2) After a minimum of 7 days of acclimation, the mice were anesthetized with a 1% sodium pentobarbital solution (6 mL/kg) by intraperitoneal injection and then placed in a prone position to maintain their body temperature at 36.8–37.2 °C during surgery. After a unilateral dorsal incision to expose the kidneys, the renal artery was occluded using a microvascular clamp (RoBoz Surgical Instrument Co, Gaithersburg, MD, USA) for 30 min. After that, the clamps were removed, and the animals were allowed to recover with free access to food and water.
(§3) To study the effects of XJB-5-131 on I/R injury, the mice were randomly allocated into the Vehi group and XJB group. The mice were injected intraperitoneally (i.p.) with XJB-5-131 (10 mg/kg) or the respective control 30 min prior to ischemia and for 3 consecutive days after surgery.
Paraffin-embedded renal sections (4 μm) were subjected to PAS staining to detect morphological changes in the cortex and medulla, and were scored in a blinded fashion using a semiquantitative design as previously reported.
(§4) Paraffin-embedded renal sections (4 μm) were deparaffinized in xylene, rehydrated in graded alcohol and blocked with 10% goat serum for 30 min. Mouse monoclonal anti-GSDMD (1:50, Santa), mouse monoclonal anti-4-HNE (1:100, R&D), rabbit polyclonal anti-MLKL, goat polyclonal anti-KIM-1 (1:800, R&D), rabbit polyclonal anti-Ki67 (1:100, Abcam), rabbit polyclonal anti-ACSL4 (1:200, Abcam), rabbit polyclonal anti-CD3 (1:100, Dako), rabbit polyclonal anti-ly6G (1:100, Abcam), rat polyclonal anti-F4/80 (1:50, Abcam), and rabbit polyclonal anti-Sox9 (1:100, Abcam) primary antibodies were incubated at 4 °C overnight and subsequently visualized with HRP-conjugated secondary antibody for IHC and fluorescently labeled secondary antibodies for IF. Staining was carefully quantified in each slide by capturing 15 randomly chosen fields in a blind manner, and the data were analyzed using Image Pro Plus software (Media Cybernetics, USA).

[3] = system: renal I/R injury; assay: Renal I/R model: intrarenal inflammatory cell infiltration and proinflammatory cytokine mRNA; format: in vivo; details: mice, unilateral I/R, 10 mg/kg i.p., vs I/R group
Description: as §2, §3, §4
Total RNA was extracted from kidney tissue using TRIzol reagent (Takara, Japan). Real-time PCR was carried out using a LightCycler 480 system (Roche, Pleasanton, CA, USA). Relative mRNA for RANTES, MCP-1, IL-6 and GAPDH was quantified in triplicate by SYBR Green RT-PCR.

[4] = system: ferroptosis in TECs; assay: Renal I/R model: ferroptosis readouts (mitochondrial morphology, GSH-Px, MDA, 4-HNE, GPX4, ACSL4); format: in vivo; details: mice, unilateral I/R, 10 mg/kg i.p.
Description: as §2, §3
The renal cortices were cut into small pieces (1 mm^3) and fixed with 2.5% glutaraldehyde. Then the samples were dehydrated and embedded. Ultra-thin sections were stained and observed with a transmission electron microscope (Tecnai G^2 20 TWIN, FEI, USA).
as §4
The levels of GSH-Px in kidneys were determined using GSH-Px assay kit, respectively (Beyotime China) in line with the manufacturer’s instructions.
Quantification of MDA levels in kidney tissue after I/R or sham operation was performed by using an MDA assay kit (Beyotime).
(§5) Renal tissues were lysed in RIPA lysis buffer containing protease inhibitor. Equal amounts of proteins (50 μg) were loaded and separated by 10% SDS-PAGE. The proteins were transferred onto polyvinylidene fluoride membranes (Millipore, USA). The membranes were blocked with 5% skimmed milk in Tris Buffered saline Tween (TBST) for 1 h at room temperature and were then incubated with appropriate primary antibodies against GPX4 (1:10000, Abcam), ACSL4 (1:10000, Abcam, UK), MLKL (1:1000, Abgent), p-MLKL (1:1000, Abcam), RIPK3 (1:1000, ABclonal), p-RIPK3 (1:1000, Abcam), GSDMD (1:1000, Santa) and GAPDH (1:5000, ABclonal) at 4 °C overnight. The blots were washed with TBST for 5 min and incubated with HRP-conjugated secondary antibodies (1:5000; ABclonal) for 1 h. After washing with TBST, the blots were visualized by the enhanced chemiluminescence method (ECL, Bio-Rad). The relative intensity of the target band was normalized to the corresponding loading control intensity and quantified by using ImageJ (NIH, USA).

[5] = system: RIPK3, MLKL, GSDMD; assay: Renal I/R model: necroptosis and pyroptosis markers by western blot; format: in vivo; details: mice, unilateral I/R, with or without XJB-5-131
Description: as §2, §3, §5

[6] = Whole-body and organ fluorescence imaging and kidney frozen sections after BODIPY-FL-XJB-5-131 injection; format: in vivo; details: mice, BODIPY-FL-labeled XJB-5-131 i.v.
Description: as §1
Fig. 5 Pharmacokinetics and distribution analysis of XJB-5-131 in vivo and in vitro. a The structure of XJB-5-131. b The tissue concentrations of XJB-5-131 in mice. Mice were injected with XJB-5-131 and sacrificed after 0.25, 0.5, 1, 2, 4 and 6 h. Plasma, kidney, liver and brain were collected for in vivo-based pharmacokinetic assays by LC-MS/MS. […] Whole-body fluorescence imaging was performed at 0 and 30 min, and the fluorescence intensity of various organs (heart, kidney, liver and brain) was measured after 30 min. […]

[7] = parameters: method as in PMID 26415224; details: cited from earlier work
[8] = system: HT-1080 cells; parameters: method as in PMID 27725964; details: cited from earlier work
[9] = stated without reference; cited from earlier work
[10] = unilateral I/R, 10 mg/kg i.p., day 3, vs I/R group

CC(C)C[C@@H](/C=C/[C@H](Cc1ccccc1)C(=O)N1CCC[C@H]1C(=O)N[C@H](C(=O)N[C@@H](CCCNC(=O)OCc1ccccc1)C(=O)NC1CC(C)(C)N([O])C(C)(C)C1)C(C)C)NC(=O)OC(C)(C)C [XJB-5-131]
AUC0–6 h ([1]; mice, brain): 4052 ng·h/g | AUC0–∞ ([1]; mice, brain): 4859 ng·h/g | MRT0-6h ([1]; mice, brain): 3.14 h | MRT0–∞ ([1]; mice, brain): 1.98 h | t1/2 ([1]; mice, brain): 2.07 h | tmax ([1]; mice, brain): 0.25 h | Cmax ([1]; mice, brain and plasma): 2353 ng/g | AUC0–6 h ([1]; mice, kidney): 234,683 ng·h/g | AUC0–∞ ([1]; mice, kidney): 255,150 ng·h/g | Cmax ([1]; mice, kidney): 261,067 ng/g | MRT0-6h ([1]; mice, kidney): 2.05 h | MRT0–∞ ([1]; mice, kidney): 1.42 h | t1/2 ([1]; mice, kidney): 2.23 h | tmax ([1]; mice, kidney): 0.25 h | AUC0–6 h ([1]; mice, plasma): 322,745 ng·h/mL | AUC0–∞ ([1]; mice, plasma): 364,783 ng·h/mL | Cmax ([1]; mice, plasma): 186,667 ng/mL | MRT0-6h ([1]; mice, plasma): 2.65 h | t1/2 ([1]; mice, plasma): 1.77 h | tmax ([1]; mice, plasma): 0.25 h | half-life (t1/2) ([1]; mice, i.v.): approximately 2 h | plasma-tissue drug transfer ([1]; mice, i.v.): fast | plasma stability ([1]; mice, i.v., in vivo PK): superior plasma stability | AUC0−6 h ([1]; mice, i.v., kidney): 234.7 µg·h/g | calculated maximal concentration (Cmax) ([1]; mice, i.v., kidney): 261.1 µg/g | AUC0−6 h ([1]; mice, i.v., kidney and brain): 4.1 µg·h/g | AUC0−6 h ([1]; mice, i.v., plasma): 322.7 µg·h/mL | calculated maximal concentration (Cmax) ([1]; mice, i.v., plasma): 186.7 µg/mL | time of Cmax after vein injection ([1]; mice, i.v., plasma, kidney and brain): 15 min | stability in liver homogenate ([1]; mouse liver homogenate, not detected by LC-MS/MS): unstable | benefit at 10mg/kg versus 2.5mg/kg or 20mg/kg ([2]; I/R, day 3, PAS staining): better beneficial than other doses | kidney injuries and casts (PAS staining) ([2]; I/R, day 3, vs I/R+Vehicle): ameliorated | KIM-1 expression (immunofluorescent staining) [2, 10]: decreased | Sox9 in TECs [2, 10]: dramatically activated | congestion area at the junction of cortex and medulla [2, 10]: reduced | loss of tubules (PAS tubular damage) [2, 10]: alleviated | number of Ki67-positive nuclei in TECs [2, 10]: much higher number | ratio of injured kidney weight to body weight [2, 10]: decreased | IL-6 mRNA expression in kidney [3]: suppressed | MCP-1 mRNA expression in kidney [3]: suppressed | RANTES mRNA expression in kidney [3]: suppressed | infiltration of inflammatory cells in the kidney (ly6G, CD3, F4/80 positive cells) [3]: reduced | 4-HNE staining [4]: less accumulation of lipid peroxidation | I/R-induced increase in ACSL4 expression (western blot) [4]: inhibited | renal GPX4 expression (western blot) [4]: significantly improved | resistance of mitochondria in TECs to I/R injury (electron microscopy) [4]: increased resistance | GSH-Px level in kidney ([4]; day 3): increased levels | MDA level in kidney ([4]; day 3): decreased levels | cleavage of GSDMD (GSDMD-N) [5]: no statistically significant difference | expression of phosphorylated MLKL [5]: no difference | expression of phosphorylated RIPK3 [5]: no difference | cell type distribution in the kidney (fluorescence microscopy of frozen sections) [6]: majority of XJB-5-131-positive cells were kidney TECs | conversion into XJB-hydroxylamine in situ [7]: easily converted into XJB-hydroxylamine | effect on ferroptosis [8]: anti-ferroptotic effects

CCOC(=O)c1ccc(NC2CCCCC2)c(N)c1 [Fer-1, ferrostatin-1]
stability in plasma [9]: poor
